# Like-named read-outs stand apart in the source and are kept apart here.
# Tests used:
# Assay type in all cases: in vivo
# Solenopsis invicta = assay: whole plant or invertebrate; details: water test tube poison-feeding; for mortality at 100 ppm: Solenopsis invicta
# Summary of the method: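 Mortality (%) of Solenopsis invicta, computed against live counts in control tubes, was recorded 24 h and 72 h after treatment at 25 °C. Compound was offered by oral feeding in test tubes at 100 ppm, diluted from a 10 g/L DMSO stock into water with 5% honey and 0.05% Tween-80.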
# Spodoptera exigua = assay: whole plant or invertebrate; details: for mortality at 500 ppm: Spodoptera exigua, 24 h, read-out: Spodoptera exigua Mortality (%) 500 ppm
# Summary of the method: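 Leaf immersion feeding: second-instar larvae (about 35 per vessel, triplicate) kept at 28° C on discs treated with 500 ppm test solution in 0.05% Tween-80. Mortality at 24 h, calculated relative to surviving larvae in the solvent control.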
# Plutella xylostella = assay: whole plant or invertebrate; details: for mortality at 500 ppm: Plutella xylostella, read-out: Plutella xylostella Mortality (%) 500 ppm
# Summary of the method: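 Leaf immersion feeding test: 2nd-instar larvae (about 35 per vessel, 3 replicates) kept at 28° C. on 1.0 cm cabbage discs soaked 5 s in a 500 ppm solution with 0.05% Tween-80. Mortality after 24 h of exposure, calculated relative to live larvae in the Tween-80 control.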
# Apis cernan = assay: Toxicity test on adult worker bees of Apis cernan, small beaker method; details: 500 ppm, 48 hours
# Description: (2) Toxicity Test on Adult Worker Bees of Apis cernan.
# Adult worker bees of Apis cernan having the same size were selected for test. The worker bees were collected from beekeeping boxes in the daystart of the test day and tested by using a small beaker method.
# Operation process: A small amount of absorbent cotton was put into a 5 mL small beaker, 5 mL of a test liquid medicine (a concentration of 500 ppm) was dropped into the absorbent cotton, and stirred gently to make the absorbent cotton completely wet but not leached obviously, then the small beaker was put into a 500 mL large beaker, then 15 worker bees were put into the large beaker, and finally the large beaker was sealed with gauze. After treatment, the large beaker was placed in a dark room of an artificial climate box. After taking the medicine for 48 hours, a number of live and dead worker bees were investigated.
# Bombyx mori L. = assay: Toxicity test on 2nd-instar larvae of Bombyx mori L., leaf immersion feeding method; details: 1000 ppm, 24 hours
# Description: (1) Toxicity Test on 2nd-Instar Larvae of Bombyx mori L.
# Bombyx mori L. is an important economic insect sensitive to pesticides in an agricultural ecosystem, and is also one of the non-target organisms of environmental ecology listed in pesticide registration of China. The 2nd-instar larvae of Bombyx mori L. were used as test objects and tested by using a leaf immersion feeding method.
# Operation process: Samples were weighed accurately, and respectively added with 200 μL of dimethyl sulfoxide to prepare 10 g/L mother liquor which was diluted into a concentration of 1000 ppm with an aqueous solution containing 0.05% of Tween-80 during the test. Young cotyledons of mulberries were collected, washed and air-dried, immersed in a liquid medicine, taken out after 5 seconds, naturally air-dryed, and then transferred into a clean vessel. About 35 2nd -instar larvae of Bombyx mori L. were put into the vessel and fed at a constant temperature of 25° C. Each concentration was repeated 3 times, and an aqueous solution containing 0.05% of Tween-80 was used as a control group. After being treated for 24 hours, a number of dead Bombyx mori L. was counted, and a mortality (%) was calculated according to a formula that mortality (%)=(number of live larvae in the control group −number of treated live larvae)/number of live larvae in the control group * 100%.
# Aphis craccivora = assay: whole plant or invertebrate; details: for mortality at 500 ppm: Aphis craccivora, 24 h, read-out: Aphis craccivora Mortality (%) 500 ppm
# Summary of the method: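 Mortality scored 24 h after treatment as the reduction in live aphids versus a 0.05% Tween-80 control; three replicates, 23° C. Treatment was a 5 s immersion of wingless adults on bean sprouts in 500 ppm test solution containing 0.05% Tween-80, followed by air-drying.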
# [1] = 24 h, read-out: Solenopsis invicta Mortality (%) 100 ppm 24 h, 100 ppm, 24 h
# [2] = 72 h, read-out: Solenopsis invicta Mortality (%) 100 ppm 72 h, 100 ppm, 72 h
Structure (SMILES),mortality at 100 ppm (Solenopsis invicta; [1]),mortality at 100 ppm (Solenopsis invicta; [2]),mortality at 500 ppm (Spodoptera exigua),mortality at 500 ppm (Plutella xylostella),Toxicity determination Apis cernan Mortality (%) (Apis cernan),Toxicity determination Bombyx mori L. Mortality (%) (Bombyx mori L.),mortality at 500 ppm (Aphis craccivora),"Solenopsis invicta Mortality (%) 100 ppm 24 h (Solenopsis invicta; 100 ppm, 24 h)","Solenopsis invicta Mortality (%) 100 ppm 72 h (Solenopsis invicta; 100 ppm, 72 h)","Spodoptera exigua Mortality (%) 500 ppm (Spodoptera exigua; 500 ppm, 2nd-instar larvae, leaf immersion feeding, 24 hours)","Plutella xylostella Mortality (%) 500 ppm (Plutella xylostella; 500 ppm, 2nd-instar larvae, leaf immersion feeding)","Aphis craccivora Mortality (%) 500 ppm (Aphis craccivora; 500 ppm, wingless adults, impregnation method, 24 hours)"
Cc1cc(-c2c(C#N)nn3c2NC(C(O)CO)c2cc(C(F)(F)F)cc(Cl)c2-3)c(C)o1 (stereo not shown) [Compound C52],22%,90%,91%,90%,7%,10%,100%,,,,,
N#Cc1cn2c(c1C#N)NC(C#N)(C#N)c1ccc([N+](=O)[O-])cc1-2 [Compound B6],44%,100%,100%,90%,5%,4%,100%,,,,,
CC1(C)Nc2c(N)c(C#N)nn2-c2ccccc21 [Compound A15],24%,100%,100%,100%,5%,8%,100%,,,,,
C=CC1(C=C)Nc2c(Br)c(CC)nn2-c2c(Cl)cc(C(F)(F)F)cc21 [Compound C61],28%,100%,100%,88%,10%,9%,90%,,,,,
N#CCC1(C(=O)O)Nc2c([S+]([O-])C(F)(F)F)c(C#N)nn2-c2c(Cl)cc(C(F)(F)F)cc21 (stereo not shown) [Compound C30],24%,100%,90%,100%,0%,0%,92%,,,,,
Nc1ccc2c(c1)-n1nc(C(F)(F)F)c(SC(F)(F)F)c1NC2(C(F)(F)F)C(F)(F)F [Compound A13],20%,100%,100%,100%,17%,17%,100%,,,,,
C=CC1(CC(F)(F)F)Nc2cc(C#N)nn2-c2c(Cl)cc(C(F)(F)F)cc21 (stereo not shown) [Compound C2],26%,93%,90%,100%,10%,5%,100%,,,,,
CNC(=O)Nc1c(C#N)nn2c1NC(C)(C)c1ccccc1-2 [Compound A19],20%,100%,100%,100%,5%,7%,100%,,,,,
C=CC1Nc2c(-c3cc(C)oc3C)c(C#N)nn2-c2c(Cl)cc(C(F)(F)F)cc21 (stereo not shown) [Compound C50],26%,86%,86%,81%,2%,5%,90%,,,,,
CNC(=O)Nc1ccc2c(c1)-n1cc(C#N)c(C#N)c1NC2(C#N)C#N [Compound B12],40%,100%,100%,100%,6%,5%,100%,,,,,
"COc1ccc(-c2cn3c(c2C#N)NC(C#N)(C#N)c2ccc([N+](=O)[O-])cc2-3)cc1 [Compound B1, 2-(4-methoxybenzene)-8-nitropyrrole[1,2-α]quinazoline-3,5,5(4H)-tricyano]",20%,100%,100%,100%,0%,0%,100%,,,,,
COc1ccc(-c2cn3c(c2C(C)=O)NC(C#N)(C#N)c2ccc([N+](=O)[O-])cc2-3)cc1 [Compound B3],24%,100%,100%,100%,3%,0%,100%,,,,,
C[S+]([O-])c1nn2c(c1C#N)NC(F)(C(F)(F)F)c1ccccc1-2 (stereo not shown) [Compound A26],,,,,10%,7%,,45%,100%,100%,100%,100%
N#Cc1cnn2c1NC(F)(CN)c1ccc(Cl)cc1-2 (stereo not shown) [Compound A22],30%,97%,100%,96%,3%,0%,100%,,,,,
CC(=O)c1nn2c(c1Br)NC(C)(C)c1ccccc1-2 [Compound A5],34%,100%,100%,100%,9%,2%,100%,,,,,
CC1(C)Nc2c([S+]([O-])C(F)(F)F)c(C#N)nn2-c2ccccc21 (stereo not shown) [Compound A8],26%,93%,90%,100%,10%,12%,100%,,,,,
